Experimental data from patent publication US11590118B2, “Methods and compositions for treating retina-associated disease using CCR3-inhibitors” (ALKAHEST INC., priority 2017, dated 2023).

Tests used:
[1] = molecular target: T1, human CCR3 (Homo sapiens, UniProt P51677); assay: receptor binding assay, human CCR3
T1 sequence (P51677 1-355): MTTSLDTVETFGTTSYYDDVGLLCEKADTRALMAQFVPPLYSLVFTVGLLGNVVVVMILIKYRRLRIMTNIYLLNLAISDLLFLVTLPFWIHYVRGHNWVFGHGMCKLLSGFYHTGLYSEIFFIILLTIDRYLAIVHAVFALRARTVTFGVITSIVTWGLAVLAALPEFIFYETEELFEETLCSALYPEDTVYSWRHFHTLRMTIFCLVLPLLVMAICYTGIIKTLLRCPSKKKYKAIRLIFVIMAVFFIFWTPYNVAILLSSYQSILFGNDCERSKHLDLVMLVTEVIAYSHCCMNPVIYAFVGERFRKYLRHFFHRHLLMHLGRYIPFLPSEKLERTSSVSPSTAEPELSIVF
Experimental: (§1) The antagonistic potency of the investigational product of the invention was determined in several human CCR3-dependent assays (FIG. 1). […] IC50 for a calcium influx assay using human CCR3-transfected CHEM1-Gα15 cells was determined to be 0.9±0.2 nM.

[2] = molecular target: T1, human CCR3; assay: calcium influx assay using human CCR3-transfected CHEM1-Gα15 cells; assay type: cell-based
Experimental: as §1

[3] = molecular target: T1, human CCR3; assay: human eotaxin-1 induced eosinophil shape change in human whole blood; assay type: cell-based; details: read-out: IC50, antagonism of human eotaxin-1 induced eosinophil shape change
Experimental: as §1

[4] = molecular target: T2, mouse CCR3 (Mus musculus, UniProt P51678); assay: receptor binding assay, mouse CCR3
T2 sequence (P51678 1-359): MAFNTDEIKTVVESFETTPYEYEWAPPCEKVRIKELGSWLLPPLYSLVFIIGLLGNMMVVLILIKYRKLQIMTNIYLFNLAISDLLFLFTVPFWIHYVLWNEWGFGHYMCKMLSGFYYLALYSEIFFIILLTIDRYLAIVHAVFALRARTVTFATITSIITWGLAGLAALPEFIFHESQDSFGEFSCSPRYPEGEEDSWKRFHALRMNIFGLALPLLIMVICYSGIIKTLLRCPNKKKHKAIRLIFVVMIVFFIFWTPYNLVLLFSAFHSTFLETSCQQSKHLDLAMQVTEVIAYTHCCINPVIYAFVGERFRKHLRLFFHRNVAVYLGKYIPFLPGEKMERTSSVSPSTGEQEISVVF
Experimental: (§2) Potencies for several other mammalian species were also determined in different assays. Species included cynomolgus (macaque) monkeys, mouse, rat, and canines.

[5] = molecular target: T3, rat CCR3 (Rattus norvegicus, UniProt O54814); assay: receptor binding assay, rat CCR3
T3 sequence (O54814 1-359): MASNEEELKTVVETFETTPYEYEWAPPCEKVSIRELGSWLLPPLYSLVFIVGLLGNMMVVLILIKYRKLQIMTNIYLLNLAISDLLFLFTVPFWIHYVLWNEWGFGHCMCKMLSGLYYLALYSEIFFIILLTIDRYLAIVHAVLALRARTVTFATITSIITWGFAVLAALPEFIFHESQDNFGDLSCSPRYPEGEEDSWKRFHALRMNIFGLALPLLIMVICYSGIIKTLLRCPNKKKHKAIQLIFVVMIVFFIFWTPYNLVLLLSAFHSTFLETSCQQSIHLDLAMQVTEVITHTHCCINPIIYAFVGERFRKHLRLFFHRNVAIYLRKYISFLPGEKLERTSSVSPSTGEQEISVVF
Experimental: as §2

[6] = system: subfoveal CNV secondary to wAMD; assay: single-arm, open-label clinical study in treatment-naïve wAMD patients, 4 week regimen; assay type: in vivo, human; details: 400 mg orally twice daily for 4 weeks
Experimental: Patients with newly diagnosed (e.g. treatment-naïve) subfoveal CNV that was secondary to wAMD were entered into a single-arm, open-label study. Patients orally took 400 mg of the investigational drug of the invention b.o.d. (twice daily) for 4 weeks and had weekly scheduled visits with the physician. The regimen called for […]. After the end of treatment (EoT) or on withdrawal from the study medication, eligible patients could receive standard of care therapy (anti-VEGF therapy). Patients were followed up twice within 4 weeks after EoT. FIG. 2 is a depiction of the clinical trial design. Boxes V1, V2, V3, V4, and V5 indicate patient visits 1 through 5, respectively. Gaps between the boxes indicate the time in days between visits. The box labeled EoT indicates visit 6, or the end of treatment. Visits 7 and 8 occurred during the follow-up (FU) visits.
The primary endpoint was the change from baseline in central retinal thickness (CRT) as determined by spectral domain optical coherence tomography (SD-OCT) on day 29 (visit no. 6). For all primary and secondary endpoints, the value of the last assessment before first intake of study medication was used as the baseline on day 1 (visit no. 2).
CRT was reported as mean (SEM) in units of μm and time as visit number. The retinal layers and thickness was visualized and measured by SD-OCT, and to those having ordinary of skill in the art and trained using OCT equipment, visualization and measurement of the retinal layers involve well-known techniques. […]
The retinal vasculature of the study eye was evaluated via fluorescein angiography (FA). The change in neovascular leakage by FA was determined on Day 29 (visit 6) compared to baseline. […] N is the number of patients evaluated.
Visual acuity was determined using ETDRS charts over time of treatment. The absolute change in numbers of letters read by patients from their baseline levels was evaluated during visits. […]

Work on `Cc1cc(C(=O)N(C)C)cc(NC(=O)[C@H]2CCC(=O)N2C2CCN(Cc3ccc(Cl)c(C)c3)CC2)n1` [investigational product of the invention] yielded an IC50 [1] of 4 ± 1.8 nM, a Ki [1] of 3.2 ± 0.6 nM and an IC50 [2] of 0.9 ± 0.2 nM. It also gave an IC50 [3] of 42.5 ± 43.5 nM, an IC50 [4] of 87.3 ± 5.6 nM and a Ki [4] of 124.3 ± 0.9 nM. The IC50 [5] was 1720 ± 130 nM, the Ki [5] was 1490 ± 128 nM and the “change from baseline in central retinal thickness (CRT) by SD-OCT” value ([6]; median or mean CRT through the treatment phase) was “no significant change from baseline”. The “change from baseline in neovascular leakage by fluorescein angiography” value ([6]; median or mean values through the treatment phase) was “no significant change from baseline” and the “best corrected visual acuity (BCVA), change in letters read, ETDRS charts” value ([6]; subset of 8 out of 14 patients, compared to sham control and the larger patient group) was “significant improvement”.
